Values joined by “and” are separate entries in the source; they are usually repeats but may differ in a detail not shown here. Identical values can stand only once. Inconclusive results and toxic doses are left out.
System: CD2F1 mice, L1210 leukemia ip, survival T/C
Test: NCI In Vivo Anticancer Drug Screen. Data for tumor model L1210 Leukemia (intraperitoneal) in CD2F1 (CDF1) mice
Conditions: higher = longer survival
Procedure, shortened: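 Mice carrying a transplanted tumor received test compound or vehicle alone. The value is the measurement in the treated group divided by that in the vehicle-treated control group.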

[1] = endpoint: mean survival time, dose: 100.0 mg/kg/injection, schedule: Q04DX003 (ip), vehicle: saline with Tween-80
[2] = endpoint: mean survival time, dose: 200.0 mg/kg/injection, schedule: Q04DX003 (ip), vehicle: saline with Tween-80
[3] = endpoint: mean survival time, dose: 400.0 mg/kg/injection, schedule: Q04DX003 (ip), vehicle: saline with Tween-80
[4] = endpoint: mean survival time, dose: 50.0 mg/kg/injection, schedule: Q01DX009 (ip), vehicle: saline with Tween-80
[5] = endpoint: mean survival time, dose: 100.0 mg/kg/injection, schedule: Q01DX009 (ip), vehicle: saline with Tween-80
[6] = endpoint: mean survival time, dose: 12.5 mg/kg/injection, schedule: Q01DX009 (ip), vehicle: saline with Tween-80
[7] = endpoint: mean survival time, dose: 25.0 mg/kg/injection, schedule: Q01DX009 (ip), vehicle: saline with Tween-80

## CCN(CC)CCn1[nH]c2c3ccc(=O)cc3sc3c(NCCN)ccc1c32
endpoint: median survival time, dose: 1.5 mg/kg/injection, schedule: Q01DX009 (ip), vehicle: water
  T/C: 168 % of control
endpoint: median survival time, dose: 1.56 mg/kg/injection, schedule: Q01DX005 (ip), vehicle: water
  T/C: 154 % of control
endpoint: median survival time, dose: 3.0 mg/kg/injection, schedule: Q01DX005 (ip), vehicle: water
  T/C: 183 % of control
endpoint: median survival time, dose: 3.0 mg/kg/injection, schedule: Q01DX009 (ip), vehicle: water
  T/C: 180 % of control
endpoint: median survival time, dose: 3.12 mg/kg/injection, schedule: Q01DX005 (ip), vehicle: water
  T/C: 192 % of control and 244 % of control
endpoint: median survival time, dose: 6.0 mg/kg/injection, schedule: Q01DX005 (ip), vehicle: water
  T/C: 152 % of control
endpoint: median survival time, dose: 6.0 mg/kg/injection, schedule: Q01DX009 (ip), vehicle: water
  T/C: 216 % of control
endpoint: median survival time, dose: 6.25 mg/kg/injection, schedule: Q01DX005 (ip), vehicle: water
  T/C: 186 % of control and 357 % of control
endpoint: median survival time, dose: 12.0 mg/kg/injection, schedule: Q01DX005 (ip), vehicle: water
  T/C: 95 % of control
endpoint: median survival time, dose: 12.0 mg/kg/injection, schedule: Q01DX009 (ip), vehicle: water
  T/C: 216 % of control
endpoint: median survival time, dose: 12.5 mg/kg/injection, schedule: Q01DX005 (ip), vehicle: water
  T/C: 231 % of control and 357 % of control

## c1ccc(C2Cc3ccccc3C2=NC2CCCCC2)cc1 (stereo not drawn)
endpoint: mean survival time, dose: 100.0 mg/kg/injection, schedule: Q01DX001 (ip), vehicle: saline with Tween-80
  T/C: 97 % of control
endpoint: mean survival time, dose: 200.0 mg/kg/injection, schedule: Q01DX001 (ip), vehicle: saline with Tween-80
  T/C: 93 % of control
endpoint: mean survival time, dose: 400.0 mg/kg/injection, schedule: Q01DX001 (ip), vehicle: saline with Tween-80
  T/C: 90 % of control

## CC(C)CCC(C)C1CCC2C3CCC4CC(=O)CC4(C)C3CCC12C (stereo not drawn)
[1]
  T/C: 100 % of control
[2]
  T/C: 94 % of control
[3]
  T/C: 97 % of control

## Cc1c(CNc2ccc(C(=O)NC(CC(=O)O)C(=O)O)cc2)ccc2nc(N)nc(N)c12 (stereo not drawn)
endpoint: mean survival time, dose: 0.18 mg/kg/injection, schedule: Q01DX009 (ip), vehicle: saline
  T/C: 173 % of control
endpoint: mean survival time, dose: 0.39 mg/kg/injection, schedule: Q01DX009 (ip), vehicle: saline
  T/C: 121 % of control
endpoint: mean survival time, dose: 0.78 mg/kg/injection, schedule: Q01DX009 (ip), vehicle: saline with Tween-80
  T/C: 94 % of control
endpoint: mean survival time, dose: 0.78 mg/kg/injection, schedule: Q01DX009 (ip), vehicle: saline
  T/C: 107 % of control
endpoint: mean survival time, dose: 1.56 mg/kg/injection, schedule: Q01DX009 (ip), vehicle: saline
  T/C: 86 % of control and 95 % of control
endpoint: mean survival time, dose: 3.12 mg/kg/injection, schedule: Q01DX009 (ip), vehicle: saline
  T/C: 93 % of control
endpoint: mean survival time, dose: 6.25 mg/kg/injection, schedule: Q01DX009 (ip), vehicle: saline
  T/C: 92 % of control
endpoint: mean survival time, dose: 25.0 mg/kg/injection, schedule: Q01DX001 (ip), vehicle: saline
  T/C: 170 % of control
endpoint: mean survival time, dose: 50.0 mg/kg/injection, schedule: Q01DX001 (ip), vehicle: saline
  T/C: 117 % of control

## O=c1ccn(C2OC(CO)C(F)(CO)C2O)c(=O)[nH]1 (stereo not drawn)
endpoint: mean survival time, dose: 12.5 mg/kg/injection, schedule: Q01DX005 (ip), vehicle: water
  T/C: 103 % of control
endpoint: mean survival time, dose: 25.0 mg/kg/injection, schedule: Q01DX005 (ip), vehicle: water
  T/C: 109 % of control
endpoint: mean survival time, dose: 50.0 mg/kg/injection, schedule: Q01DX005 (ip), vehicle: water
  T/C: 97 % of control
endpoint: mean survival time, dose: 100.0 mg/kg/injection, schedule: Q01DX005 (ip), vehicle: water
  T/C: 94 % of control
endpoint: mean survival time, dose: 200.0 mg/kg/injection, schedule: Q01DX005 (ip), vehicle: water
  T/C: 105 % of control

## O=C(CCCN1CCC(O)CC1)c1ccccc1
[4]
  T/C: 88 % of control
[5]
  T/C: 94 % of control

## COC1=CC23CCCN2CCc2cc4c(cc2C3C1O)OCO4 (stereo not drawn)
endpoint: mean survival time, dose: 12.5 mg/kg/injection, schedule: Q01DX009 (ip), vehicle: water
  T/C: 97 % of control
endpoint: mean survival time, dose: 25.0 mg/kg/injection, schedule: Q01DX009 (ip), vehicle: water
  T/C: 101 % of control
endpoint: mean survival time, dose: 50.0 mg/kg/injection, schedule: Q01DX009 (ip), vehicle: water
  T/C: 100 % of control
endpoint: mean survival time, dose: 100.0 mg/kg/injection, schedule: Q01DX009 (ip), vehicle: water
  T/C: 95 % of control
endpoint: mean survival time, dose: 200.0 mg/kg/injection, schedule: Q01DX009 (ip), vehicle: water
  T/C: 97 % of control

## O=c1ccnc(SCc2ccccc2)[nH]1
endpoint: mean survival time, dose: 100.0 mg/kg/injection, schedule: Q04DX002 (ip), vehicle: saline with Tween-80
  T/C: 105 % of control
endpoint: mean survival time, dose: 200.0 mg/kg/injection, schedule: Q04DX002 (ip), vehicle: saline with Tween-80
  T/C: 101 % of control
endpoint: mean survival time, dose: 400.0 mg/kg/injection, schedule: Q04DX002 (ip), vehicle: saline with Tween-80
  T/C: 94 % of control

## COc1ccc2nc3cc(Cl)ccc3c(NCCNCCNCCNc3c4ccc(Cl)cc4nc4ccc(OC)cc34)c2c1
endpoint: mean survival time, dose: 3.12 mg/kg/injection, schedule: Q01DX009 (ip), vehicle: Klucel (hydroxypropylcellulose) (HPC)
  T/C: 113 % of control
endpoint: mean survival time, dose: 3.12 mg/kg/injection, schedule: Q01DX009 (ip), vehicle: saline with Tween-80
  T/C: 96 % of control
endpoint: mean survival time, dose: 6.25 mg/kg/injection, schedule: Q01DX009 (ip), vehicle: Klucel (hydroxypropylcellulose) (HPC)
  T/C: 116 % of control
endpoint: mean survival time, dose: 6.25 mg/kg/injection, schedule: Q01DX009 (ip), vehicle: saline with Tween-80
  T/C: 96 % of control
endpoint: mean survival time, dose: 12.5 mg/kg/injection, schedule: Q01DX009 (ip), vehicle: Klucel (hydroxypropylcellulose) (HPC)
  T/C: 101 % of control
[6]
  T/C: 102 % of control
[7]
  T/C: 103 % of control
endpoint: mean survival time, dose: 50.0 mg/kg/injection, schedule: Q01DX009 (ip), vehicle: Klucel (hydroxypropylcellulose) (HPC)
  T/C: 90 % of control
[4]
  T/C: 106 % of control
[5]
  T/C: 106 % of control

## c1ccc(/C(=N\Nc2nc3ccccc3s2)c2ccncc2)cc1
endpoint: mean survival time, dose: 100.0 mg/kg/injection, schedule: Q04DX003 (ip), vehicle: Klucel (hydroxypropylcellulose) (HPC)
  T/C: 92 % of control
endpoint: mean survival time, dose: 200.0 mg/kg/injection, schedule: Q04DX003 (ip), vehicle: Klucel (hydroxypropylcellulose) (HPC)
  T/C: 89 % of control
endpoint: mean survival time, dose: 400.0 mg/kg/injection, schedule: Q04DX003 (ip), vehicle: Klucel (hydroxypropylcellulose) (HPC)
  T/C: 92 % of control

## CCOP(=O)(OCC)/C(C#N)=C\c1ccc(N(C)C)cc1
[1]
  T/C: 101 % of control
[2]
  T/C: 95 % of control
[3]
  T/C: 98 % of control

## Nc1nc(/C=C(/O)c2ccccc2)c2ncn(C3OC(CO)C(O)C3O)c2n1 (stereo not drawn)
endpoint: mean survival time, dose: 12.5 mg/kg/injection, schedule: Q01DX005 (ip), vehicle: distilled water + Tween-80
  T/C: 103 % of control
endpoint: mean survival time, dose: 12.5 mg/kg/injection, schedule: Q01DX009 (ip), vehicle: distilled water + Tween-80
  T/C: 89 % of control
endpoint: mean survival time, dose: 25.0 mg/kg/injection, schedule: Q01DX005 (ip), vehicle: distilled water + Tween-80
  T/C: 114 % of control and 115 % of control
endpoint: mean survival time, dose: 25.0 mg/kg/injection, schedule: Q01DX009 (ip), vehicle: distilled water + Tween-80
  T/C: 89 % of control
endpoint: mean survival time, dose: 50.0 mg/kg/injection, schedule: Q01DX005 (ip), vehicle: distilled water + Tween-80
  T/C: 120 % of control
endpoint: mean survival time, dose: 50.0 mg/kg/injection, schedule: Q01DX009 (ip), vehicle: distilled water + Tween-80
  T/C: 92 % of control
endpoint: mean survival time, dose: 100.0 mg/kg/injection, schedule: Q01DX005 (ip), vehicle: distilled water + Tween-80
  T/C: 160 % of control
endpoint: mean survival time, dose: 100.0 mg/kg/injection, schedule: Q01DX009 (ip), vehicle: distilled water + Tween-80
  T/C: 102 % of control
endpoint: mean survival time, dose: 200.0 mg/kg/injection, schedule: Q01DX009 (ip), vehicle: distilled water + Tween-80
  T/C: 103 % of control
endpoint: median survival time, dose: 12.5 mg/kg/injection, schedule: Q01DX009 (ip), vehicle: distilled water + Tween-80
  T/C: 103 % of control
endpoint: median survival time, dose: 25.0 mg/kg/injection, schedule: Q01DX009 (ip), vehicle: distilled water + Tween-80
  T/C: 107 % of control
endpoint: median survival time, dose: 50.0 mg/kg/injection, schedule: Q01DX009 (ip), vehicle: distilled water + Tween-80
  T/C: 111 % of control
endpoint: median survival time, dose: 100.0 mg/kg/injection, schedule: Q01DX009 (ip), vehicle: distilled water + Tween-80
  T/C: 113 % of control

## C1CC[N-]CC1.C1CC[N-]CC1.C1CC[N-]CC1.[Cl][Rh]([Cl])[Cl]
[6]
  T/C: 99 % of control
[7]
  T/C: 99 % of control

## O=[N+]([O-])c1ccccc1N=C(c1ccccc1)N(O)c1ccccc1
endpoint: mean survival time, dose: 9.4 mg/kg/injection, schedule: Q01DX009 (ip), vehicle: saline with Tween-80
  T/C: 101 % of control
endpoint: mean survival time, dose: 9.4 mg/kg/injection, schedule: Q04DX003 (ip), vehicle: saline with Tween-80
  T/C: 98 % of control
endpoint: mean survival time, dose: 18.8 mg/kg/injection, schedule: Q01DX001 (ip), vehicle: saline
  T/C: 101 % of control
endpoint: mean survival time, dose: 18.8 mg/kg/injection, schedule: Q01DX009 (ip), vehicle: saline with Tween-80
  T/C: 104 % of control
endpoint: mean survival time, dose: 18.8 mg/kg/injection, schedule: Q04DX003 (ip), vehicle: saline with Tween-80
  T/C: 100 % of control
endpoint: mean survival time, dose: 37.5 mg/kg/injection, schedule: Q01DX001 (ip), vehicle: saline
  T/C: 102 % of control

Reference: PubChem BioAssay AID256 (DTP/NCI, 2004)
